Test results: PubChem BioAssay (NCI)
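Step 1: Grow cells in 96-well plates. Step 2: Expose to compound for 48 hours at 5 concentrations. Step 3: Interpolate endpoints linearly; if unreached, use highest concentration. TGI marks complete inhibition of growth.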

How the values were obtained:
Test in all cases: NCI anticancer screen, dose series, 48 h
SW-620 colon = system: SW-620 colon
OVCAR-3 ovarian = system: OVCAR-3 ovarian
SF-295 CNS = system: SF-295 CNS
T-47D breast = system: T-47D breast
U251 CNS = system: U251 CNS
M14 melanoma = system: M14 melanoma
HCT-15 colon = system: HCT-15 colon
HOP-92 NSCLC = system: HOP-92 NSCLC
OVCAR-4 ovarian = system: OVCAR-4 ovarian
HT29 colon = system: HT29 colon
SNB-75 CNS = system: SNB-75 CNS
LOX IMVI melanoma = system: LOX IMVI melanoma
BT-549 breast = system: BT-549 breast
MDA-MB-231 breast = system: MDA-MB-231 breast
TK-10 renal = system: TK-10 renal
UO-31 renal = system: UO-31 renal
UACC-62 melanoma = system: UACC-62 melanoma
NCI-H522 lung = system: NCI-H522 lung
A498 renal = system: A498 renal
ACHN renal = system: ACHN renal

Row | Compound | TGI (SW-620 colon) [µM] | TGI (OVCAR-3 ovarian) [µM] | TGI (SF-295 CNS) [µM] | TGI (T-47D breast) [µM] | TGI (U251 CNS) [µM] | TGI (M14 melanoma) [µM] | TGI (HCT-15 colon) [µM] | TGI (HOP-92 NSCLC) [µM] | TGI (OVCAR-4 ovarian) [µM] | TGI (HT29 colon) [µM] | TGI (SNB-75 CNS) [µM] | TGI (LOX IMVI melanoma) [µM] | TGI (BT-549 breast) [µM] | TGI (MDA-MB-231 breast) [µM] | TGI (TK-10 renal) [µM] | TGI (UO-31 renal) [µM] | TGI (UACC-62 melanoma) [µM] | TGI (NCI-H522 lung) [µM] | TGI (A498 renal) [µM] | TGI (ACHN renal) [µM]
1 | Cc1ccc(Nc2cc(=O)[nH]c(=O)[nH]2)cc1CS | > 100 | > 100 | > 100 | > 100 | > 100 | > 100 | > 100 | > 100 | > 100 | > 100 | > 100 | > 100 | > 100 | > 100 | > 100 | > 100 | > 100 | > 100 | > 100 | > 100
2 | O=c1c2ccccc2n2n1Cc1ccccc1C2 | > 100 | > 100 | > 100 | > 100 | > 100 |  | > 100 | > 100 | > 100 | > 100 | > 100 | > 100 | > 100 | > 100 | > 100 | > 100 | > 100 | > 100 | > 100 | > 100
3 | Cc1ccc(S(=O)(=O)c2ccsc2NC(=O)c2ccccc2)cc1 | > 100 | > 100 | > 100 | > 100 | > 100 | > 100 | > 100 | > 100 | 73.6 | > 100 | > 93.3 | > 100 | > 100 | > 79.4 | > 100 | > 100 | > 100 | > 100 | > 100 | > 79.7
4 | O=C1c2ccccc2-n2c1nc1cc(Cl)ccc1c2=O |  | > 100 | > 100 | 48.8 | > 100 | > 100 | > 100 | > 100 | > 100 | > 100 | > 100 | 76.2 | > 100 | > 100 | > 100 | > 100 | 32.1 | > 100 | > 100 | > 100
5 | Nc1nc(NCC2(CO)CC(CCc3ccccc3)C2)cc(=O)[nH]1 (stereo unspecified) | > 100 | > 100 | > 100 | > 100 | > 100 | > 100 | > 100 | > 100 | > 100 | > 100 | > 100 | > 100 | > 100 | > 100 |  | 67.8 | > 100 | > 100 | > 100 | 
6 | Nc1ccc(-c2nc3ccccc3s2)cc1I | > 100 | > 100 | > 100 | > 100 | > 88.5 | > 100 | > 100 | > 54.5 | > 100 | > 100 | 99.4 | > 100 | > 100 | > 100 | > 100 | > 100 | > 100 | > 100 | > 90.8 | > 100
7 | CC1=C2c3ccccc3N(S(=O)(=O)c3ccccc3)[C@H]2[C@H](C(=O)N2C3CC4CC[C@@]3(CS2(=O)=O)C4(C)C)CC1 (stereo partly specified) | > 100 | > 100 | > 100 | > 100 | > 100 | > 100 | > 100 | > 100 | > 100 | > 100 | 19.6 | > 100 | 81.7 | > 100 | > 100 | 54 | > 100 | 42.6 | > 100 | > 100
8 | CCCCC1=CC1(C#N)[N+](=O)[O-] (stereo unspecified) | > 100 | > 100 | > 100 | > 100 | > 100 | > 100 | > 100 | > 100 | > 100 | > 100 | > 100 | > 100 | > 100 | > 100 | > 100 | > 100 | > 100 | > 100 | > 100 | > 100
9 | O=c1[nH]cnc2c1ncn2C1SC(CO)C(O)C1O (stereo unspecified) | > 100 | > 100 | > 100 | > 100 | > 100 | > 100 | > 100 | > 100 | > 100 | > 100 | > 100 | > 100 | > 100 | > 100 | > 100 | > 100 | > 100 | > 100 | > 100 | > 100
10 | O=C1CSC(c2ccccc2[N+](=O)[O-])N1c1ccc(-n2c(-c3ccccc3)nc3ccccc3c2=O)cc1 (stereo unspecified) | > 100 | > 100 | 64.3 | 98.4 | 32.7 |  | > 100 | 60.2 | > 100 | > 100 | 34.9 | > 100 | > 100 | > 100 | > 100 | > 100 | > 100 | > 100 | > 100 | > 100
11 | O=[N+]([O-])c1cc(C(F)(F)F)ccc1S(=O)(=O)N[C@@H]1CCCC[C@H]1NS(=O)(=O)c1ccc(C(F)(F)F)cc1[N+](=O)[O-] | 53.8 | 7.07 | 9.38 | > 50.7 | 17.1 | 8.95 | 10.1 | 8.31 | 29.2 | 22.7 | 7.46 | 3.24 | 8.16 | 8.02 | > 100 | > 23.2 | 13.4 | 4.76 | > 23.7 | 11.2
12 | Cc1ccc(Cc2nn(C)c(=O)n2-n2cccc2)cc1 | > 100 | > 100 | > 100 | > 100 | > 100 | > 100 | > 100 |  | > 100 | > 100 | > 100 | > 100 | > 100 | > 100 | > 100 | > 100 | > 100 | > 100 | > 100 | > 100
13 | O=C(Oc1ccc(OC(Oc2ccccc2)c2ccccc2)cc1)c1ccccc1 (stereo unspecified) | > 31.6 | > 31.6 | 25.8 | > 100 | > 100 | > 31.6 |  |  | > 31.6 | > 31.6 | > 31.6 | > 31.6 | > 31.6 | > 31.6 | > 31.6 | > 31.6 | > 31.6 | > 100 | 23.8 | > 31.6
14 | CSc1n[nH]c2n[nH]c(C)c12 | > 100 | > 100 | > 100 | > 100 | > 100 | > 100 | > 100 | > 100 | > 100 | > 100 | > 100 | > 100 | > 100 | > 100 | > 100 | > 100 | > 100 | > 100 | > 100 | > 100
15 | Cc1cn(C2CC(N=[N+]=[N-])C(CO)O2)c(=O)n(CCCCO)c1=O (stereo unspecified) | > 100 | > 100 | > 100 | > 100 | > 100 | > 100 | > 100 | > 100 | > 100 | > 100 | > 100 | > 100 | > 100 | > 100 | > 100 | > 100 | > 100 | > 100 | > 100 | > 100
16 | CC(=O)O[C@H]1CC[C@@]2(C)C(=CC[C@H]3[C@@H]4C/C(=C\c5ccncc5)[C@H](OC(C)=O)[C@@]4(C)CC[C@@H]32)C1 | 17.2 | 23.4 | 19.5 | 38.5 | 23.1 | 30.2 | 15.6 | 19.7 | 18.2 | 20.3 | 23.8 | 13.3 | 10.9 | 41.1 | 47.9 | 20.7 | 26.5 | 18.5 | 26.7 | 33.6
17 | CC(=O)OC(C#N)CC(C)(C)/[N+]([O-])=[N+](\[O-])C(C)(C)CC(C#N)OC(C)=O (stereo unspecified) | 30.2 | 40 | 80.8 | 50.2 | 39.5 | 32.2 | 25.5 | 27 | 33.9 | 65.8 | 63.8 | 28.8 | 36.6 | 36.1 | 31.2 | 63.6 | 32.2 | 23.9 | > 100 | 24.5
18 | O=C(/C=C/c1ccc(O)cc1)c1cc(O)cc(O)c1 |  | 29.4 | 30.6 | 33 | 27.5 | 29.3 | 16.9 | 31.9 | 44.6 | 35 | 39.9 | 17.3 | 29.8 | 30.4 | 45.8 | 21.6 | 24.1 | 18.1 | 28.1 | 20.2
19 | CN(C)c1ccc(/C=C2\N=C(c3ccccc3)N(/N=C3\C(=O)Nc4ccccc43)C2=O)cc1 | > 100 | 65.5 | > 100 | > 100 | > 100 | > 100 | > 100 | > 100 | > 100 | > 100 | > 100 | > 100 | > 100 | > 100 | > 100 | > 100 | > 100 | > 100 | > 100 | > 100
20 | O=C(O)c1nc2cc(C(F)(F)F)ccc2[nH]c1=O | > 100 | > 100 | > 100 | > 100 | > 100 | > 100 | > 100 | > 100 | > 100 | > 100 |  | > 100 | > 100 | > 100 | > 100 | > 100 | > 100 | > 100 | > 100 | > 100
21 | COc1ccc2[nH]cc(CN3CCC(CO)(c4ccccc4)CC3)c2c1 | 47.8 | > 100 | 39.8 | 46.5 | > 100 | 32.3 | > 100 |  | > 100 | > 100 | 87.6 | 37 | > 100 | 80.9 | > 100 | 72.2 | 92.2 | 35.5 | > 100 | 47.8
22 | CCOC(=O)c1nc2cc(C(F)(F)F)ccc2nc1Oc1ccc(C(=O)OC)cc1 | > 100 | > 100 | > 100 | > 100 | > 100 | > 100 | > 100 | > 100 | > 100 |  | > 100 | > 100 | > 100 | > 100 | > 100 | > 100 | > 100 | > 100 | > 100 | > 100
23 | CN1CC(S(=O)(=O)c2ccccc2)CC(S(=O)(=O)c2ccccc2)C1c1ccccc1 (stereo unspecified) | 34.4 | 27.8 | > 100 | 50.6 | 25.8 | 42.1 | 32.2 | 37.7 | 34.5 | 29.6 |  | 29.7 | 28.5 | 31.8 | 28 | 29.4 | 29 | 13.1 | 31.7 | 26.9
24 | Cc1ccc(N=Nc2c(C)nn(C(=O)CC(=O)Nc3ccc(Cl)cc3)c2C)cc1C | > 100 | > 100 | > 100 | > 100 | > 100 | > 100 |  | 64.3 | > 100 | > 100 | 48.7 | > 100 | > 100 | > 100 | > 100 | > 100 | > 100 | > 100 | > 100 | > 100
